Starred links: 1 amine or outer side, 2 acyl side, 3 side chain; linkers in the order of their positions; H or OH if unused. Non-standard residues stand in square brackets, D forms with d. Residues, ends and D or L forms follow the SMILES beside them. Groups on a side chain read outwards from the residue. *: point of attachment. C20 diacid = O=C(O)CCCCCCCCCCCCCCCCCCC(=O)*; C18 diacid = O=C(O)CCCCCCCCCCCCCCCCC(=O)*; γGlu = O=C(O)[C@H](CCC(=O)[*:2])N[*:1]; NMeY = CN[C@@H](Cc1ccc(O)cc1)C(=O)O; AEEA = NCCOCCOCC(=O)O; Aib = CC(C)(N)C(=O)O
Assay: physchem
Summary of the method: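 3 mg of peptide treated with 100 μL portions of 200 mM phosphate buffer pH 7.4, sonicating/vortexing up to 1 min, with further buffer added until fully dissolved. Solubility then quantified by HPLC.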

Compound	solubility (pH 7.4) [mg/mL]	solubility (pH 7.4, aqueous buffer) [mg/mL]
CC[C@H](C)[C@H](NC(=O)[C@H](Cc1ccccc1)NC(=O)[C@@H](NC(=O)CNC(=O)[C@H](CCC(=O)O)NC(=O)C(C)(C)NC(=O)[C@H](Cc1ccc(O)cc1)NC)[C@@H](C)O)C(=O)N[C@@H](CO)C(=O)N[C@@H](CC(=O)O)C(=O)N[C@@H](Cc1ccc(O)cc1)C(=O)N[C@@H](CO)C(=O)N[C@H](C(=O)NC(C)(C)C(=O)N[C@@H](CC(C)C)C(=O)N[C@@H](CC(=O)O)C(=O)N[C@@H](CCCNC(=N)N)C(=O)NC(C)(C)C(=O)N[C@@H](C)C(=O)N[C@@H](CCC(N)=O)C(=O)NC(C)(C)C(=O)N[C@@H](CCCCNC(=O)COCCOCCNC(=O)COCCOCCNC(=O)CC[C@H](NC(=O)CC[C@H](NC(=O)CCCCCCCCCCCCCCCCCCC(=O)O)C(=O)O)C(=O)O)C(=O)N[C@@H](Cc1ccccc1)C(=O)N[C@H](C(=O)N[C@@H](CC(N)=O)C(=O)N[C@@H](Cc1c[nH]c2ccccc12)C(=O)N[C@@H](CC(C)C)C(=O)N[C@@H](CC(C)C)C(=O)N[C@@H](C)C(=O)N[C@@H](CCC(N)=O)C(=O)N[C@@H](CCCNC(=N)N)C(=O)NCC(=O)O)C(C)C)[C@@H](C)CC [Compound 159] (H-[NMeY][Aib]EGTFISDYSI[Aib]LDR[Aib]AQ[Aib]K([AEEA-AEEA-γGlu-γGlu-C20 diacid])FVNWLLAQRG-OH)	≥ 15	≥ 30
CC[C@H](C)[C@H](NC(=O)[C@H](CO)NC(=O)[C@H](Cc1ccc(O)cc1)NC(=O)[C@H](CC(=O)O)NC(=O)[C@H](CO)NC(=O)[C@@H](NC(=O)[C@H](Cc1ccccc1)NC(=O)[C@@H](NC(=O)CNC(=O)[C@H](CCC(=O)O)NC(=O)C(C)(C)NC(=O)[C@@H](N)Cc1ccc(O)cc1)[C@@H](C)O)[C@@H](C)CC)C(=O)N[C@@H](C)C(=O)N[C@@H](CC(C)C)C(=O)N[C@@H](CC(=O)O)C(=O)N[C@@H](CCCCN)C(=O)N[C@H](C(=O)N[C@@H](CCCCNC(=O)COCCOCCNC(=O)COCCOCCNC(=O)CC[C@H](NC(=O)CCCCCCCCCCCCCCCCC(=O)O)C(=O)O)C(=O)N[C@@H](CCC(N)=O)C(=O)NC(C)(C)C(=O)N[C@@H](CC(=O)O)C(=O)N[C@@H](Cc1ccccc1)C(=O)N[C@H](C(=O)N[C@@H](CCC(=O)O)C(=O)N[C@@H](Cc1c[nH]c2ccccc12)C(=O)N[C@@H](CC(C)C)C(=O)N[C@@H](CC(C)C)C(=O)N[C@@H](C)C(=O)N[C@@H](CCC(N)=O)C(=O)N[C@@H](CCCNC(=N)N)C(=O)NCC(=O)O)C(C)C)[C@@H](C)CC [Compound 160] (H-Y[Aib]EGTFISDYSIALDKIK([AEEA-AEEA-γGlu-C18 diacid])Q[Aib]DFVEWLLAQRG-OH)	≥ 15	≥ 30
CC[C@H](C)[C@H](NC(=O)[C@H](CO)NC(=O)[C@H](Cc1ccc(O)cc1)NC(=O)[C@H](CC(=O)O)NC(=O)[C@H](CO)NC(=O)[C@@H](NC(=O)[C@H](Cc1ccccc1)NC(=O)[C@@H](NC(=O)CNC(=O)[C@H](CCC(=O)O)NC(=O)C(C)(C)NC(=O)[C@@H](N)Cc1ccc(O)cc1)[C@@H](C)O)[C@@H](C)CC)C(=O)N[C@@H](C)C(=O)N[C@@H](CC(C)C)C(=O)N[C@@H](CC(=O)O)C(=O)N[C@@H](CCCCN)C(=O)N[C@@H](C)C(=O)N[C@@H](CCCCNC(=O)COCCOCCNC(=O)COCCOCCNC(=O)CC[C@H](NC(=O)CCCCCCCCCCCCCCCCC(=O)O)C(=O)O)C(=O)N[C@@H](CCC(N)=O)C(=O)NC(C)(C)C(=O)N[C@@H](CC(=O)O)C(=O)N[C@@H](Cc1ccccc1)C(=O)N[C@H](C(=O)N[C@@H](CCC(=O)O)C(=O)N[C@@H](Cc1c[nH]c2ccccc12)C(=O)N[C@@H](CC(C)C)C(=O)N[C@@H](CC(C)C)C(=O)N[C@@H](C)C(=O)N[C@@H](CCC(N)=O)C(=O)N[C@@H](CCCNC(=N)N)C(=O)NCC(=O)O)C(C)C [Compound 161] (H-Y[Aib]EGTFISDYSIALDKAK([AEEA-AEEA-γGlu-C18 diacid])Q[Aib]DFVEWLLAQRG-OH)	≥ 15	≥ 30
CC[C@H](C)[C@H](NC(=O)[C@H](CO)NC(=O)[C@H](Cc1ccc(O)cc1)NC(=O)[C@H](CC(=O)O)NC(=O)[C@H](CO)NC(=O)[C@@H](NC(=O)[C@H](Cc1ccccc1)NC(=O)[C@@H](NC(=O)CNC(=O)[C@H](CCC(=O)O)NC(=O)C(C)(C)NC(=O)[C@@H](N)Cc1ccc(O)cc1)[C@@H](C)O)[C@@H](C)CC)C(=O)N[C@@H](C)C(=O)N[C@@H](CC(C)C)C(=O)N[C@@H](CC(=O)O)C(=O)N[C@@H](CCCCN)C(=O)NC(C)(C)C(=O)N[C@@H](CCCCNC(=O)COCCOCCNC(=O)COCCOCCNC(=O)CC[C@H](NC(=O)CCCCCCCCCCCCCCCCC(=O)O)C(=O)O)C(=O)N[C@@H](CCC(N)=O)C(=O)N[C@@H](C)C(=O)N[C@@H](CC(=O)O)C(=O)N[C@@H](Cc1ccccc1)C(=O)N[C@H](C(=O)N[C@@H](CCC(=O)O)C(=O)N[C@@H](Cc1c[nH]c2ccccc12)C(=O)N[C@@H](CC(C)C)C(=O)N[C@@H](CC(C)C)C(=O)N[C@@H](C)C(=O)N[C@@H](CCC(N)=O)C(=O)N[C@@H](CCCNC(=N)N)C(=O)NCC(=O)O)C(C)C [Compound 162] (H-Y[Aib]EGTFISDYSIALDK[Aib]K([AEEA-AEEA-γGlu-C18 diacid])QADFVEWLLAQRG-OH)	≥ 15	≥ 30
CC[C@H](C)[C@H](NC(=O)[C@H](CO)NC(=O)[C@H](Cc1ccc(O)cc1)NC(=O)[C@H](CC(=O)O)NC(=O)[C@H](CO)NC(=O)[C@@H](NC(=O)[C@H](Cc1ccccc1)NC(=O)[C@@H](NC(=O)CNC(=O)[C@H](CCC(=O)O)NC(=O)C(C)(C)NC(=O)[C@@H](N)Cc1ccc(O)cc1)[C@@H](C)O)[C@@H](C)CC)C(=O)N[C@@H](C)C(=O)N[C@@H](CC(C)C)C(=O)N[C@@H](CC(=O)O)C(=O)N[C@@H](CCCCN)C(=O)NC(C)(C)C(=O)N[C@@H](CCCCNC(=O)COCCOCCNC(=O)COCCOCCNC(=O)CC[C@H](NC(=O)CCCCCCCCCCCCCCCCC(=O)O)C(=O)O)C(=O)N[C@@H](CCC(N)=O)C(=O)N[C@@H](C)C(=O)N[C@@H](CC(N)=O)C(=O)N[C@@H](Cc1ccccc1)C(=O)N[C@H](C(=O)N[C@@H](CCC(=O)O)C(=O)N[C@@H](Cc1c[nH]c2ccccc12)C(=O)N[C@@H](CC(C)C)C(=O)N[C@@H](CC(C)C)C(=O)N[C@@H](C)C(=O)N[C@@H](CCC(N)=O)C(=O)N[C@@H](CCCNC(=N)N)C(=O)NCC(=O)O)C(C)C [Compound 163] (H-Y[Aib]EGTFISDYSIALDK[Aib]K([AEEA-AEEA-γGlu-C18 diacid])QANFVEWLLAQRG-OH)	≥ 15	≥ 30
CC[C@H](C)[C@H](NC(=O)[C@H](CO)NC(=O)[C@H](Cc1ccc(O)cc1)NC(=O)[C@H](CC(=O)O)NC(=O)[C@H](CO)NC(=O)[C@@H](NC(=O)[C@H](Cc1ccccc1)NC(=O)[C@@H](NC(=O)CNC(=O)[C@H](CCC(=O)O)NC(=O)C(C)(C)NC(=O)[C@@H](N)Cc1ccc(O)cc1)[C@@H](C)O)[C@@H](C)CC)C(=O)N[C@@H](C)C(=O)NC(C)(C)C(=O)N[C@@H](CC(=O)O)C(=O)N[C@@H](CCCCN)C(=O)N[C@@H](C)C(=O)N[C@@H](CCCCNC(=O)COCCOCCNC(=O)COCCOCCNC(=O)CC[C@H](NC(=O)CCCCCCCCCCCCCCCCC(=O)O)C(=O)O)C(=O)N[C@@H](CCC(N)=O)C(=O)N[C@@H](CCC(N)=O)C(=O)N[C@@H](CC(=O)O)C(=O)N[C@@H](Cc1ccccc1)C(=O)N[C@H](C(=O)N[C@@H](CCC(=O)O)C(=O)N[C@@H](Cc1c[nH]c2ccccc12)C(=O)N[C@@H](CC(C)C)C(=O)N[C@@H](CC(C)C)C(=O)N[C@@H](C)C(=O)N[C@@H](CCC(N)=O)C(=O)N[C@@H](CCCNC(=N)N)C(=O)NCC(=O)O)C(C)C [Compound 164] (H-Y[Aib]EGTFISDYSIA[Aib]DKAK([AEEA-AEEA-γGlu-C18 diacid])QQDFVEWLLAQRG-OH)	≥ 15	≥ 30
CC[C@H](C)[C@H](NC(=O)[C@H](CO)NC(=O)[C@H](Cc1ccc(O)cc1)NC(=O)[C@H](CC(=O)O)NC(=O)[C@H](CO)NC(=O)[C@@H](NC(=O)[C@H](Cc1ccccc1)NC(=O)[C@@H](NC(=O)CNC(=O)[C@H](CCC(=O)O)NC(=O)C(C)(C)NC(=O)[C@@H](N)Cc1ccc(O)cc1)[C@@H](C)O)[C@@H](C)CC)C(=O)N[C@@H](C)C(=O)NC(C)(C)C(=O)N[C@@H](CC(=O)O)C(=O)N[C@@H](CCCCN)C(=O)N[C@@H](C)C(=O)N[C@@H](CCCCNC(=O)COCCOCCNC(=O)COCCOCCNC(=O)CC[C@H](NC(=O)CCCCCCCCCCCCCCCCC(=O)O)C(=O)O)C(=O)N[C@@H](CCC(N)=O)C(=O)N[C@@H](C)C(=O)N[C@@H](CC(=O)O)C(=O)N[C@@H](Cc1ccccc1)C(=O)N[C@H](C(=O)N[C@@H](CCC(=O)O)C(=O)N[C@@H](Cc1c[nH]c2ccccc12)C(=O)N[C@@H](CC(C)C)C(=O)N[C@@H](CC(C)C)C(=O)N[C@@H](C)C(=O)N[C@@H](CCC(N)=O)C(=O)N[C@@H](CCCNC(=N)N)C(=O)NCC(=O)O)C(C)C [Compound 165] (H-Y[Aib]EGTFISDYSIA[Aib]DKAK([AEEA-AEEA-γGlu-C18 diacid])QADFVEWLLAQRG-OH)	≥ 15	≥ 30
CC[C@H](C)[C@H](NC(=O)[C@H](CO)NC(=O)[C@H](Cc1ccc(O)cc1)NC(=O)[C@H](CC(=O)O)NC(=O)[C@H](CO)NC(=O)[C@@H](NC(=O)[C@H](Cc1ccccc1)NC(=O)[C@@H](NC(=O)CNC(=O)[C@H](CCC(=O)O)NC(=O)C(C)(C)NC(=O)[C@@H](N)Cc1ccc(O)cc1)[C@@H](C)O)[C@@H](C)CC)C(=O)N[C@@H](C)C(=O)NC(C)(C)C(=O)N[C@@H](CC(=O)O)C(=O)N[C@@H](CCCCN)C(=O)N[C@H](C(=O)N[C@@H](CCCCNC(=O)COCCOCCNC(=O)COCCOCCNC(=O)CC[C@H](NC(=O)CCCCCCCCCCCCCCCCC(=O)O)C(=O)O)C(=O)N[C@@H](CCC(N)=O)C(=O)N[C@@H](C)C(=O)N[C@@H](CC(=O)O)C(=O)N[C@@H](Cc1ccccc1)C(=O)N[C@H](C(=O)N[C@@H](CCC(=O)O)C(=O)N[C@@H](Cc1c[nH]c2ccccc12)C(=O)N[C@@H](CC(C)C)C(=O)N[C@@H](CC(C)C)C(=O)N[C@@H](C)C(=O)N[C@@H](CCC(N)=O)C(=O)N[C@@H](CCCNC(=N)N)C(=O)NCC(=O)O)C(C)C)[C@@H](C)CC [Compound 166] (H-Y[Aib]EGTFISDYSIA[Aib]DKIK([AEEA-AEEA-γGlu-C18 diacid])QADFVEWLLAQRG-OH)	≥ 15	≥ 30

— US20230143604A1, “QW DOSING OF GIP RECEPTOR AGONIST PEPTIDE COMPOUNDS AND USES THEREOF” (TAKEDA PHARMACEUTICAL COMPANY LIMITED, priority 2020, published 2023)
